Non-standard residues stand in square brackets, D forms with d. Residues, ends and D or L forms follow the SMILES beside them. pT = C[C@@H](OP(=O)(O)O)[C@H](N)C(=O)O; pS = N[C@@H](COP(=O)(O)O)C(=O)O
Key:
Format in all cases: binding
GABARAPL2 = target: T1, GABARAPL2 (Homo sapiens, UniProt P60520); test: FP displacement assay, GABARAPL2; conditions: read-out: KD values ± SEM
T1 construct: GABARAPL2_ATG8__P60520_2_115; GST (cleaved yes); made in house; host or cells: Escherichia coli BL21-Gold(DE3)
T1 sequence (P60520 2-115): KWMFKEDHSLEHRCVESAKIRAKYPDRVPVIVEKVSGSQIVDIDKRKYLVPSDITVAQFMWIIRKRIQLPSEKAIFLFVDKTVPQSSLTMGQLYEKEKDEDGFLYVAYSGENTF
Protocol: (§1) FP experiments were performed as described previously (Kliche et al, [2021]). Shortly, in order to monitor the binding event, FITC‐labelled peptides were used (excitation 495 nm, emission: 535 nm) and the FP signal was recorded in mP on a SpectraMax iD5 Multi‐Mode Microplate Reader (Molecular Devices) by measuring the emitted light in two angels. The measurements were performed at room temperature and prepared in nonbinding black half area 96‐well microplates (Corning®; 50 μl/well). For measuring direct binding, that is saturation curves, a 1:1 dilution series of protein domain (25 μl/well) was generated in 50 mM sodium phosphate buffer pH 7.4 and the measurement performed with 5 nM FITC‐labelled peptide (25 μl/well). The buffer‐corrected values were subsequently plotted with PRISM and fitted to the quadratic equation (Gianni et al, [2005]).
(§2) The 1:1 dilution series in this experiment was performed with the unlabelled peptide in 50 mM sodium phosphate buffer pH 7.4, so that each well‐contained unlabelled peptide (25 μl) at a certain concentration and pre‐formed complex (25 μl). The KD values of this indirectly monitored binding event were calculated as described previously (Nikolovska‐Coleska et al, [2004]). All measurements were at least in technical triplicates as well as biological duplicates when indicated. An amplitude shift between repeat measurements in the displacement experiments was occasionally observed due to variations in the protein preparations. If that was the case, the “active” protein concentration was back‐calculated according to the quadratic equation from the saturation curves performed in parallel. By comparing the active protein concentrations in the complex between different protein preparations, the amplitude was normalised.

MAP1LC3B ATG8 = target: T2, MAP1LC3B ATG8 (Homo sapiens, UniProt Q9GZQ8); test: ITC, MAP1LC3B ATG8
T2 construct: MAP1LC3B ATG8; made in house; host or cells: Escherichia coli BL21-Gold(DE3)

MAP1LC3B = target: T3, MAP1LC3B (Homo sapiens, UniProt Q9GZQ8); test: FP displacement assay, MAP1LC3B; conditions: read-out: KD values ± SEM
T3 construct: GST (cleaved yes); made in house; host or cells: Escherichia coli BL21-Gold(DE3)
Protocol: as §1, §2

KPNA4 ARM Major = target: T4, KPNA4 ARM Major (Homo sapiens, UniProt O00629); test: FP displacement assay, KPNA4 ARM major pocket; conditions: for IC50: Fig 3E, KPNA4 ARM major, technical triplicates, read-out: IC50 values of displacement curves, with SEM; for Kd: major pocket probe FITC-MYC 5 nM, 50 mM sodium phosphate pH 7.4, room temperature, at least three technical replicates, read-out: KD values ± SEM
T4 construct: 60-487; GST (cleaved yes); made in house; host or cells: Escherichia coli BL21-Gold(DE3)
T4 sequence (O00629 60-487): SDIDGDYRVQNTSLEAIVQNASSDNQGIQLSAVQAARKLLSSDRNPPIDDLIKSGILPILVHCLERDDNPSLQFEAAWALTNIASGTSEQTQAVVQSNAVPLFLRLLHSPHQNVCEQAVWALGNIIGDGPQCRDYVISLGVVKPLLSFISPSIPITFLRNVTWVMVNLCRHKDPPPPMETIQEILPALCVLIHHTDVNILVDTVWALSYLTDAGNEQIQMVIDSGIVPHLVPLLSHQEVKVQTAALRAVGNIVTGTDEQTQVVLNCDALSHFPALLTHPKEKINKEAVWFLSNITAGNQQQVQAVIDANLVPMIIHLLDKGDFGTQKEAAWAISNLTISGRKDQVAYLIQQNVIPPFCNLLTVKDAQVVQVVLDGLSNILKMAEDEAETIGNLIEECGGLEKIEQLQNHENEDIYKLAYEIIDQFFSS
Protocol: as §1, §2

KPNA4 ARM minor = target: T5, KPNA4 ARM minor (Homo sapiens, UniProt O00629); test: FP displacement assay, KPNA4 ARM minor pocket; conditions: for IC50: Fig 3E, KPNA4 ARM minor, technical triplicates, read-out: IC50 values of displacement curves, with SEM; for Kd: minor pocket probe FITC-NCOR2 5 nM, 50 mM sodium phosphate pH 7.4, room temperature, at least three technical replicates, read-out: KD values ± SEM
T5 construct: 60-487; GST (cleaved yes); made in house; host or cells: Escherichia coli BL21-Gold(DE3)
T5 sequence (O00629 60-487): as above
Protocol: as §1, §2

| SMILES | IC50 (KPNA4 ARM Major) | Kd (KPNA4 ARM Major) | IC50 (KPNA4 ARM minor) | Kd (KPNA4 ARM minor) | Kd (GABARAPL2) | also measured |
| --- | --- | --- | --- | --- | --- | --- |
| CC(=O)N[C@@H](C)C(=O)N[C@@H](CC(N)=O)C(=O)N[C@@H](CO)C(=O)N[C@@H](Cc1c[nH]c2ccccc12)C(=O)N[C@@H](CCC(N)=O)C(=O)N[C@@H](CC(C)C)C(=O)N[C@H](C(=O)N[C@@H](CCC(=O)O)C(=O)N[C@H](C(=O)N1CCC[C@H]1C(=O)N[C@@H](CCC(=O)O)C(=O)N[C@@H](CCCCN)C(=O)N[C@@H](CCCNC(=N)N)C(=O)N[C@@H](CCCCN)C(=O)N[C@@H](CCC(=O)O)C(=O)N[C@@H](CCC(=O)O)C(N)=O)[C@@H](C)O)C(C)C [DLGAP4_907–922 wt] (Ac-ANSWQLVETPEKRKEE-NH2) |  |  |  |  | 174 ± 22 µM |  |
| CC(=O)N[C@@H](CC(C)C)C(=O)N[C@@H](CCC(=O)O)C(=O)N[C@@H](CC(=O)O)C(=O)N[C@@H](CC(=O)O)C(=O)N[C@@H](CCC(=O)O)C(=O)N[C@@H](CCC(N)=O)C(=O)N[C@@H](Cc1ccccc1)C(=O)N[C@H](C(=O)N[C@@H](COP(=O)(O)O)C(=O)N[C@@H](CC(C)C)C(=O)N[C@@H](Cc1ccc(O)cc1)C(=O)NCC(=O)N[C@H](C(=O)N[C@@H](CCC(=O)O)C(=O)N[C@@H](CCC(=O)O)C(=O)N[C@@H](Cc1ccc(O)cc1)C(N)=O)[C@@H](C)O)C(C)C [TBK1_164–179 pS] |  |  |  |  | 2.8 ± 0.6 µM | Kd (MAP1LC3B ATG8; ITC (iTC200), 50 mM sodium phosphate pH 7.4, 1 mM DTT, average of the runs, at least technical triplicates): 2.67 µM; Ka (MAP1LC3B ATG8; ITC single run: date 200402, injection 1): 270000; Ka (MAP1LC3B ATG8; ITC single run: date 200402, injection 2): 480000; Ka (MAP1LC3B ATG8; ITC single run: date 200402, injection 3): 520000; Kd (MAP1LC3B): 1.3 ± 0.3 µM |
| CC(=O)N[C@@H](CC(N)=O)C(=O)N[C@@H](Cc1ccc(O)cc1)C(=O)N[C@@H](C)C(=O)N1CCC[C@H]1C(=O)N1CCC[C@H]1C(=O)N[C@H](C(=O)N[C@@H](CCCCN)C(=O)N[C@@H](CCCNC(=N)N)C(=O)N[C@@H](CCC(=O)O)C(=O)N[C@@H](CCCNC(=N)N)C(=O)N[C@H](C(=O)N[C@@H](CO)C(=O)N[C@@H](CO)C(=O)N[C@@H](CC(C)C)C(=O)N[C@H](C(=O)N[C@@H](CCC(N)=O)C(N)=O)[C@@H](C)O)[C@@H](C)OP(=O)(O)O)C(C)C [RANBP3_114–129 pS (p + 5)] (Ac-NYAPPVKRER[pT]SSLTQ-NH2) | 10 ± 1 µM | 1.13 ± 0.05 µM | 800 ± 75 µM | 167 ± 9 µM |  |  |

The next lines start with results.

| IC50 (KPNA4 ARM Major) | Kd (KPNA4 ARM Major) | IC50 (KPNA4 ARM minor) | Kd (KPNA4 ARM minor) | SMILES | Kd (GABARAPL2) | also measured |
| --- | --- | --- | --- | --- | --- | --- |
|  | 50 ± 7 µM |  | 248 ± 3 µM | CC(=O)N[C@@H](CC(=O)O)C(=O)N[C@H](C(=O)N[C@@H](CCC(=O)O)C(=O)N[C@@H](Cc1c[nH]cn1)C(=O)NCC(=O)NCC(=O)N[C@@H](CCCCN)C(=O)N[C@@H](CCCNC(=N)N)C(=O)N[C@@H](COP(=O)(O)O)C(=O)N[C@@H](CCCNC(=N)N)C(=O)N[C@@H](CC(C)C)C(=O)N[C@H](C(=O)N1CCC[C@H]1C(=O)N[C@H](C(=O)N[C@@H](CO)C(=O)N[C@@H](Cc1ccc(O)cc1)C(N)=O)C(C)C)[C@@H](C)O)C(C)C [SQSTM1_258–272 pS] (Ac-DVEHGGKR[pS]RLTPVSY-NH2) |  |  |
| 1.3 ± 0.2 µM | 0.15 ± 0.01 µM | 325 ± 34 µM | 68 ± 4 µM | CC(=O)N[C@@H](CC(N)=O)C(=O)N[C@@H](Cc1ccc(O)cc1)C(=O)N[C@@H](C)C(=O)N1CCC[C@H]1C(=O)N1CCC[C@H]1C(=O)N[C@H](C(=O)N[C@@H](CCCCN)C(=O)N[C@@H](CCCNC(=N)N)C(=O)N[C@@H](CCC(=O)O)C(=O)N[C@@H](CCCNC(=N)N)C(=O)N[C@H](C(=O)N[C@@H](CO)C(=O)N[C@@H](CO)C(=O)N[C@@H](CC(C)C)C(=O)N[C@H](C(=O)N[C@@H](CCC(N)=O)C(N)=O)[C@@H](C)O)[C@@H](C)O)C(C)C [RANBP3_114–129 wt] (Ac-NYAPPVKRERTSSLTQ-NH2) |  |  |
|  | 0.24 ± 0.04 µM |  | 14 ± 0.7 µM | CC(=O)N[C@@H](CC(=O)O)C(=O)N[C@H](C(=O)N[C@@H](CCC(=O)O)C(=O)N[C@@H](Cc1c[nH]cn1)C(=O)NCC(=O)NCC(=O)N[C@@H](CCCCN)C(=O)N[C@@H](CCCNC(=N)N)C(=O)N[C@@H](CO)C(=O)N[C@@H](CCCNC(=N)N)C(=O)N[C@@H](CC(C)C)C(=O)N[C@H](C(=O)N1CCC[C@H]1C(=O)N[C@H](C(=O)N[C@@H](CO)C(=O)N[C@@H](Cc1ccc(O)cc1)C(N)=O)C(C)C)[C@@H](C)O)C(C)C [SQSTM1_258–272 wt] (Ac-DVEHGGKRSRLTPVSY-NH2) |  |  |
